Measurements reported in article PMC11640836, “Aminomethylmorpholino Nucleosides as Novel Inhibitors of PARP1 and PARP2: Experimental and Molecular Modeling Analyses of Their Selectivity and Mechanism of Action” (International Journal of Molecular Sciences, 2024).
Read-outs that look alike come from different tables or passages of the source.

Key:
[1] = molecular target: T1, PARP1 (Homo sapiens, UniProt P09874); test: PARP1 autopoly(ADP-ribosyl)ation (autoPARylation) enzyme assay with [32P]NAD+; assay type: biochemical
T1 construct: made in house; host or cells: insect cells
T1 sequence (P09874 whole entry): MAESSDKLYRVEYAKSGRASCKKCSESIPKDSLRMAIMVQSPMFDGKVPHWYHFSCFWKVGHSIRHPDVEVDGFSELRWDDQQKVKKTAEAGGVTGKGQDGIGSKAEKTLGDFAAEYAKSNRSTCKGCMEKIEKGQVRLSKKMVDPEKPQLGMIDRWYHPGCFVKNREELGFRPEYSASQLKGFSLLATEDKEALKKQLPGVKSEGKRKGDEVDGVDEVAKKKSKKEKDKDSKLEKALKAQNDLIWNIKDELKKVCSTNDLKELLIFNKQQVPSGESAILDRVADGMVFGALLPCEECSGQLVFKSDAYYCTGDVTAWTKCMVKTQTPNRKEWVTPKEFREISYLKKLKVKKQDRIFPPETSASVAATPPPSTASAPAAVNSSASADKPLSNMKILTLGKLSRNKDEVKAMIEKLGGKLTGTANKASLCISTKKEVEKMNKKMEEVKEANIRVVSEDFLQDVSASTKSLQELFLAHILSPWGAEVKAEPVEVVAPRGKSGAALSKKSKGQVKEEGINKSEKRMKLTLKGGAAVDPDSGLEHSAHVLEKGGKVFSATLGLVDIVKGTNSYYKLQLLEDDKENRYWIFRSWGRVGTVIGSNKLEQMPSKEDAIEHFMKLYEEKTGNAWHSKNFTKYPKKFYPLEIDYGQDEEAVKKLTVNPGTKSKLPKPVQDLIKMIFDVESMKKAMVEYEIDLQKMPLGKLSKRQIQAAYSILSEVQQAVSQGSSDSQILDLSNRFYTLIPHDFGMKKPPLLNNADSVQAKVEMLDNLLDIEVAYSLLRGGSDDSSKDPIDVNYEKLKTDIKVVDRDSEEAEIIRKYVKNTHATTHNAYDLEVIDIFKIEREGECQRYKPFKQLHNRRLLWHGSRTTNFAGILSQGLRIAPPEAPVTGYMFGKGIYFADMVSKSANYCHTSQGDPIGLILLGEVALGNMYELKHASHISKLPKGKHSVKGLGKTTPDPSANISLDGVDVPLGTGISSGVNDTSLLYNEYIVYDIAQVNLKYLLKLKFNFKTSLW
Protocol: (§1) Human recombinant poly(ADP-ribose) polymerase 1 (PARP1) and murine poly(ADP-ribose) polymerase 2 (PARP2) were expressed in insect cells and purified as previously described. Radioactively labeled [^32P]NAD^+ was synthesized from [α-^32P]ATP, according to the previously developed method. The reaction of autopoly(ADP-ribosyl)ation was performed as follows. For PARP1, the reaction mixture contained 50 mM of Tris-HCl, a pH of 8.0, 10 mM of MgCl2, 150 mM of NaCl, 7 mM of β-mercaptoethanol, 2 A260/mL of activated DNA, 0.3 mM of [^32P]NAD^+, and 1 of the tested compounds. The reaction was initiated by adding PARP1 up to 200 nM, and the reaction mixtures were incubated at 37 °C for 2 min. For PARP2, the reaction mixture contained 50 mM of Tris-HCl, a pH of 8.0, 3 mM of spermine, 150 mM of NaCl, 7 mM of β-mercaptoethanol, 2 A260/mL of activated DNA, 0.6 mM of [^32P]NAD^+, and 1 of the tested compounds. The reaction was initiated by adding PARP2 up to 800 nM, and the reaction mixtures were incubated at 37 °C for 5 min. The tested compounds were added at six fixed concentrations, specified for each of them. The reaction was stopped by dropping 10 µL aliquots onto Whatman 1 filter papers soaked in 5% trichloroacetic acid (TCA). The filters were washed 4 times with 150 mL of 5% TCA and dried in the air after the removal of TCA with 90% ethanol. The introduction of radioactivity into the reaction product was quantified using a Typhoon FLA 9500 imager (GE Healthcare, Chicago, IL, USA). The half-maximal inhibitory concentration (IC50) values were determined using a six-point concentration response curve in three independent experiments.

[2] = molecular target: T2, PARP2 (Mus musculus, UniProt O88554); test: PARP2 autopoly(ADP-ribosyl)ation (autoPARylation) enzyme assay with [32P]NAD+; assay type: biochemical, murine
T2 construct: made in house; host or cells: insect cells
T2 sequence (O88554 whole entry): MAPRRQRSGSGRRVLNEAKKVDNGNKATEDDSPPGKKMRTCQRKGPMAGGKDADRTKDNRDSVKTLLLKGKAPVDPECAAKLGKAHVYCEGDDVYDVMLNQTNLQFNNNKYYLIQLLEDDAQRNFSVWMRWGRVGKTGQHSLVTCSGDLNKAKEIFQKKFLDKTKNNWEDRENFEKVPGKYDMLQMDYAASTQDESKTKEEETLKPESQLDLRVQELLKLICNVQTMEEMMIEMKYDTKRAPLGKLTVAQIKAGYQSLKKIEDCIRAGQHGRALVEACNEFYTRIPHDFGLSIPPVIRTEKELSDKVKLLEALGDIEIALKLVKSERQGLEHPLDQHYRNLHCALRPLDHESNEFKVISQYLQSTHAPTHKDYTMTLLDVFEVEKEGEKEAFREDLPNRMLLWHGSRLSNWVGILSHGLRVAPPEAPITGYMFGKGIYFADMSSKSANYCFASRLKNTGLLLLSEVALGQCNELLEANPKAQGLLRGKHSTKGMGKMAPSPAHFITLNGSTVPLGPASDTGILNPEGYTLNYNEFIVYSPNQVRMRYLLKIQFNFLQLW
Protocol: as §1

[3] = molecular target: T1, PARP1; test: Steady-state kinetic analysis of the PARP1 enzymatic reaction; assay type: biochemical; details: for Type of inhibition: Vmax decreased, KM increased
Protocol: The four efficient inhibitors of PARP1 (compounds 8, 12, 13, and 14) were further examined by detailed kinetic experiments to determine the type of inhibition and the inhibition constants. […] The kinetics experiments of the PARylation reaction were performed at varied concentrations of the NAD^+ substrate and three–four different fixed concentrations of the inhibitor. The kinetic parameters of the reaction (Vmax and KM) were calculated by fitting the Michaelis–Menten equation to the kinetic data. The type of inhibition was determined by analyzing the dependences of Vmax and KM on the concentration of the inhibitor in linearizing coordinates (Figure S3). All the compounds had decreased Vmax and increased KM values as the inhibitor concentration increased (panels A−E), indicating a mixed type of inhibition, which was further evidenced by the double reciprocal plots of kinetic data (panel F). From these experiments, the inhibition constants reflecting the affinity of inhibitors to the NAD^+ binding pocket of free enzymes were determined (Table 2).
To determine the apparent maximum rate of enzymatic reaction (Vmax), Michaelis constant (KM), and possible inhibition mechanism, steady-state kinetic experiments were performed at […] fixed concentrations of the substrate, in the absence and presence of different fixed concentrations of the inhibitor. The standard reaction mixtures (10 μL) contained 100 μM, 300 μM, 500 μM, 1 mM, or 2 mM NAD^+; a tested PARP1/PARP2 inhibitor specified for each compound (Figure S3); the recombinant human enzyme PARP1 (200 nM) or murine PARP2 (800 nM); and reaction buffer components (specified in the previous subsection). The reaction was performed as described in the previous subsection. The raw data (kinetic curves) were obtained in three independent experiments and statistically processed with OriginPro 8.6.0 software. […]
F) Graphical representation in double reciprocal plots. The inhibitor concentrations (µM) are indicated right to each panel.
Figure S3. Graphical representation of inhibition type determination for PARP1 and PARP2 with selected compounds.
The Ki and Ki(2) values presented in Table 2 in the main text and Table S1 were calculated using the equations:
Ki = Ci⁄ Ki (2) = CiV Vmax ∗ൗ−1
ቂ(Vmax Km )൘ቃ(Vmax ∗ Km ∗)⁄ −1 where Vmax (Vmax*) – maximal reaction velocity in th e absence (presence) of inhibitor; Km (Km*) – Michaelis constant in the absence (presence) of inhibitor; Ci – the inhibitor concentration.
(also on this page, place not known: Ci )⁄ (Vmax ∗ )⁄൘ቃ − Ki(2) Ci V ∗ൗ− 1 the Vmax KM 3000 0 1 0 250 [ 32 P]ADP-ribose, counts x 10 -3 NAD + ,)
(1 picture or pasted object on this page, not shown here)

[4] = molecular target: T3, PARP2 (supplemented with HPF1 or not) (Mus musculus, UniProt O88554); test: PARP2 inhibition in the absence and presence of HPF1 (automodification, SDS-PAGE); assay type: biochemical, murine; details: 500 nM PARP2, 1 µM HPF1
T3 construct: made in house; host or cells: insect cells (PARP2)
T3 sequence (O88554 whole entry): as above
Protocol: PARP1/PARP2 autopoly(ADP-ribosyl)ation was performed in a standard 20 μL reaction mixture containing 50 mM of Tris-HCl, a pH of 8.0, 100 mM of NaCl, 10 mM of MgCl2, 1 mM of DTT, 10 µM of [^32P]NAD^+, 1 µM of gap-DNA (a 32-mer duplex with a medially located 1-nucleotide gap), 500 nM of PARP1/PARP2 (supplemented with 1 µM of HPF1 or not), and an inhibitor of interest at concentrations specified in Figure 4 and Figure S7. The reaction was initiated by adding a mixture of [^32P]NAD^+ and DNA to a protein-inhibitor mixture pre-assembled on ice. After incubating the mixtures at 37 °C for the indicated time periods, the reactions were terminated by the addition of an SDS-PAGE sample buffer and heating for 2 min at 90 °C. The reaction products were analyzed using 10% SDS-PAGE with the subsequent phosphor imaging of a Coomassie brilliant blue stained gel. Protein bands labeled with [^32P]ADP-ribose were quantified using Quantity One 4.6.7 Basic software. The residual activity (%) was determined as the level of PARP automodification in the presence of an inhibitor normalized to the respective level in the control sample containing no inhibitor.

[5] = mixed-type inhibition, read-out: Ki (affinity for the free enzyme)
[6] = read-out: Ki(2) (affinity for the enzyme complex with NAD+ substrate)

## Cc1cn([C@H]2CNC[C@@H](CN)O2)c(=O)[nH]c1=O [Compound 8]
[1]
  IC50: 10 ± 3 µM
[2]
  IC50: 133 ± 8 µM
[3]
  Type of inhibition: mixed-type inhibition
[3]; [5]
  Ki: 12 ± 2 µM
[3]; [6]
  Ki: 40 ± 8 µM
[4]
  Impact of HPF1 on the inhibition potency against PARP2: no impact of HPF1

## NC[C@@H]1CNC[C@H](n2cc(I)c(=O)[nH]c2=O)O1 [Compound 14]
[1]; 0.3 mM [32P]NAD+, means ±SDs of three independent experiments, read-out: IC50, PARP1 activity in the autoPARylation reaction
  IC50: 12 ± 2 µM
[2]; 0.6 mM [32P]NAD+, means ±SDs of three independent experiments, read-out: IC50, PARP2 activity in the autoPARylation reaction
  IC50: 63 ± 9 µM
[3]
  Type of inhibition: mixed-type inhibition
[3]; [5]
  Ki: 15 ± 3 µM
[3]; [6]
  Ki: 50 ± 10 µM
[4]
  Impact of HPF1 on the inhibition potency against PARP2: no impact of HPF1
